Consider seven compounds from US20200190073A1, “SUBSTITUTED SUCCINIMIDE DERIVATIVES AS PESTICIDES” (BASF SE, priority 2017, published 2020).

Molecules are shown by their SMILES.

Broadly, the mortality is the share of the test organisms that died.

Common to all, as to assay type: in vivo
Assay [1] has as its system Diamond back moth (Plutella xylostella). Description: B.1 Diamond back moth, cabbage leaf dip. To be noted: foliar, 72 h, read-out: mortality in comparison with untreated controls. How it is done:
B.1 Diamond back moth (Plutella xylostella)
The active compound was dissolved at the desired concentration in a mixture of 1:1 (vol:vol) distilled water:acetone. Surfactant (Kinetic HV) was added at a rate of 0.01% (vol/vol). The test solution was prepared at the day of use.
Leaves of cabbage were dipped in test solution and air-dried. Treated leaves were placed in petri dishes lined with moist filter paper and inoculated with ten 3rd instar larvae. Mortality was recorded 72 hours after treatment. Feeding damages were also recorded using a scale of 0-100%.

The subject of assay [2] is Green Peach Aphid (Myzus persicae). Description: B.2 Green peach aphid, artificial diet, systemic. Particulars: 72 h, read-out: mortality in comparison with untreated controls. An excerpt:
B.2 Green Peach Aphid (Myzus persicae)
For evaluating control of green peach aphid (Myzus persicae) through systemic means the test unit consisted of 96-well-microtiter plates containing liquid artificial diet under an artificial mem brane.
The compounds were formulated using a solution containing 75% v/v water and 25% v/v DMSO. Different concentrations of formulated compounds were pipetted into the aphid diet, using a custom built pipetter, at two replications.
After application, 5-8 adult aphids were placed on the artificial membrane inside the microtiter plate wells. The aphids were then allowed to suck on the treated aphid diet and incubated at about 23±1° C. and about 50±5% relative humidity for 3 days. Aphid mortality and fecundity was then visually assessed.

The subject of assay [3] is Vetch Aphid (Megoura viciae). Description: B.3 Vetch aphid, broad bean leaf disks. To be noted: foliar, 120 h, read-out: mortality in comparison with untreated controls. How it is done: B.3 Vetch Aphid (Megoura viciae)
For evaluating control of vetch aphid (Megoura viciae) through contact or systemic means the test unit consisted of 24-well-microtiter plates containing broad bean leaf disks.
The compounds were formulated using a solution containing 75% v/v water and 25% v/v DMSO. Different concentrations of formulated compounds were sprayed onto the leaf disks at 2.5 μl, using a custom built micro atomizer, at two replications.
After application, the leaf disks were air-dried and 5-8 adult aphids placed on the leaf disks inside the microtiter plate wells. The aphids were then allowed to suck on the treated leaf disks and incubated at about 23±1° C. and about 50±5% relative humidity for 5 days. Aphid mortality and fecundity was then visually assessed.

The test system of assay [4] is Tobacco Budworm (Heliothis virescens). Description: B.4 Tobacco budworm, insect diet with eggs. To be noted: 120 h, read-out: mortality in comparison with untreated controls. How it is done: B.4 Tobacco Budworm (Heliothis virescens)
For evaluating control of tobacco budworm (Heliothis virescens) the test unit consisted of 96-well-microtiter plates containing an insect diet and 15-25 H. virescens eggs.
The compounds were formulated using a solution containing 75% v/v water and 25% v/v DMSO. Different concentrations of formulated compounds were sprayed onto the insect diet at 10 μl, using a custom built micro atomizer, at two replications.
After application, microtiter plates were incubated at about 28±1° C. and about 80±5% relative humidity for 5 days. Egg and larval mortality was then visually assessed.

In assay [5] the test system is Boll Weevil (Anthonomus grandis). Description: B.5 Boll weevil, insect diet with eggs. To be noted: 120 h, read-out: mortality in comparison with untreated controls. How it is done: B.5 Boll Weevil (Anthonomus grandis)
For evaluating control of boll weevil (Anthonomus grandis) the test unit consisted of 96-well-microtiter plates containing an insect diet and 5-10 A. grandis eggs.
The compounds were formulated using a solution containing 75% v/v water and 25% v/v DMSO. Different concentrations of formulated compounds were sprayed onto the insect diet at 5 μl, using a custom built micro atomizer, at two replications.
After application, microtiter plates were incubated at about 25±1° C. and about 75±5% relative humidity for 5 days. Egg and larval mortality was then visually assessed.

In assay [6] the test system is Orchid Thrips (Dichromothrips Corbetti). Description: B.7 Orchid thrips, floral immersion. To be noted: Thrips, 72 h, read-out: mortality in comparison with untreated controls. How it is done:
B.7 Orchid Thrips (Dichromothrips Corbetti)
Dichromothrips corbetti adults used for bioassay were obtained from a colony maintained continuously under laboratory conditions. For testing purposes, the test compound is diluted in a 1:1 mixture of acetone:water (vol:vol), plus Kinetic HV at a rate of 0.01% v/v.
Thrips potency of each compound was evaluated by using a floral-immersion technique. All petals of individual, intact orchid flowers were dipped into treatment solution and allowed to dry in Petri dishes. Treated petals were placed into individual re-sealable plastic along with about 20 adult thrips. All test arenas were held under continuous light and a temperature of about 28° C. for duration of the assay. After 3 days, the numbers of live thrips were counted on each petal. The percent mortality was recorded 72 hours after treatment.

Assay [7] concerns Red Spider Mite (Tetranychus kanzawai). Description: B.9 Red spider mite, sprayed cowpea beans. Particulars: 72 h, read-out: mortality in comparison with untreated controls. How it is done:
B.9 Red Spider Mite (Tetranychus kanzawai)
The active compound was dissolved at the desired concentration in a mixture of 1:1 (vol:vol) distilled water:acetone. Add surfactant (Kinetic HV) was added at a rate of 0.01% (vol/vol).The test solution was prepared at the day of use.
Potted cowpea beans of 4-5 days of age were cleaned with tap water and sprayed with 1-2 ml of the test solution using air driven hand atomizer. The treated plants were allowed to air dry and afterwards inoculated with 30 or more mites by clipping a cassava leaf section from rearing population. Treated plants were placed inside a holding room at about 25-27° C. and about 50-60% relative humidity. Percent mortality was assessed 72 hours after treatment.

Assay [8] concerns Green Soldier Stink Bug (Nezara viridula). Description: B.11 Green soldier stink bug, sprayed soybean pods. To be noted: 120 h, read-out: mortality in comparison with untreated controls. How it is done:
B.11 Green Soldier Stink Bug (Nezara viridula)
The active compound was dissolved at the desired concentration in a mixture of 1:1 (vol:vol) distilled water:acetone. Surfactant (Kinetic HV) was added at a rate of 0.01% (vol/vol). The test solution was prepared at the day of use. Soybean pods were placed in glass Petri dishes lined with moist filter paper and inoculated with ten late 3rd instar N. viridula. Using a hand atomizer, approximately 2 ml solution is sprayed into each Petri dish. Assay arenas were kept at about 25° C. Percent mortality was recorded after 5 days.

The subject of assay [9] is Rice Green Leafhopper (Nephotettix virescens). Description: B.8 Rice green leafhopper, sprayed rice seedlings. Particulars: 72 h, read-out: mortality in comparison with untreated controls. How it is done:
B.8 Rice Green Leafhopper (Nephotettix virescens)
Rice seedlings were cleaned and washed 24 hours before spraying. The active compounds were formulated in 1:1 acetone:water (vol:vol), and 0.01% vol/vol surfactant (Kinetic HV) was added. Potted rice seedlings were sprayed with 5-6 ml test solution, air dried, covered with Mylar cages and inoculated with 10 adults. Treated rice plants were kept at about 28-29° C. and relative humidity of about 50-60%. Percent mortality was recorded after 72 hours.

The subject of assay [10] is Orchid Thrips (Dichromothrips Corbetti). Description: CE.3 Orchid thrips, comparative test. To be noted: 96 h, read-out: % mortality in comparison to untreated controls. As to the method:
(§1) The tables show % mortality in comparison to untreated controls.
CE.3 Orchid Thrips (Dichromothrips Corbetti)
Dichromothrips corbetti adults used for bioassay were obtained from a colony maintained continuously under laboratory conditions. For testing purposes, the test compound was diluted to a concentration of 300 ppm (wt compound: vol diluent) in a 1:1 mixture of acetone:water (vol:vol), plus 0.01% vol/vol Kinetic® surfactant.
Thrips potency of each compound was evaluated by using a floral-immersion technique. Plastic petri dishes were used as test arenas. All petals of individual, intact orchid flowers were dipped into treatment solution and allowed to dry. Treated flowers were placed into individual petri dishes along with 10-15 adult thrips. The petri dishes were then covered with lids. All test arenas were held under continuous light and a temperature of about 280C for duration of the assay. After 4 days, the numbers of live thrips were counted on each flower, and along inner walls of each petri dish. The level of thrips mortality was extrapolated from pre-treatment thrips numbers.

Assay [11] relates to Rice Green Leafhopper (Nephotettix virescens). Description: CE.5 Rice green leafhopper, comparative test. Particulars: 72 h, read-out: % mortality in comparison to untreated controls. How it is done:
as §1
CE.5 Rice Green Leafhopper (Nephotettix virescens)
Rice seedlings were cleaned and washed 24 hours before spraying. The active compounds were formulated in 50:50 acetone:water (vol:vol), and 0.1% vol/vol surfactant (EL 620) was added. Potted rice seedlings were sprayed with 5 ml test solution, air dried, placed in cages and inoculated with 10 adults. Treated rice plants were kept at about 28-29° C. and relative humidity of about 50-60%. Percent mortality was recorded after 72 hours.

With `CNN1C(=O)C[C@@H](NC(=O)c2ccc(C3=NOC(c4cc(Cl)cc(Cl)c4)(C(F)(F)F)C3)cc2C)C1=O` (stereo partly drawn) [Compound I-1-45, 4-[5-(3,5-Dichlorophenyl)-5-(trifluoromethyl)-4H-isoxazol-3-yl]-2-methyl-N-[(3R)-1-(methylamino)-2,5-dioxo-pyrrolidin-3-yl]benzamide], the mortality at 300 ppm in [1], in assay [6], in assay [7] and in [8] was over 75% throughout. Moreover, the mortality at 2500 ppm in assay [2], in assay [3], in assay [4] and in assay [5] was over 75% throughout.

As for `O=C(N[C@@H]1CC(=O)N(CC(F)(F)F)C1=O)c1ccc(C2=NOC(c3cc(Cl)c(F)c(Cl)c3)(C(F)(F)F)C2)cc1Cl` (some centres unmarked) [Compound I-1-59], the mortality at 300 ppm in [1], in [6], in assay [9], in assay [7] and in [8] was over 75% throughout. Besides, the mortality at 2500 ppm in assay [2], in assay [3], in [4] and in assay [5] was over 75% each time. Also, the mortality at 10 ppm in assay [10] is 100%.

As for `CCN1C(=O)C[C@@H](NC(=O)c2ccc(C3=NOC(c4cc(Cl)c(F)c(Cl)c4)(C(F)(F)F)C3)cc2C)C1=O` (some centres unmarked) [Compound I-1-50], the mortality at 300 ppm in assay [1], in [6], in [9], in assay [7] and in assay [8] was over 75% throughout. For the same compound, the mortality at 2500 ppm in assay [2], in assay [3], in [4] and in assay [5] was over 75% each time. Besides, the mortality at 10 ppm in [10] stood at 100%.

As to `CCN1C(=O)C[C@@H](NC(=O)c2ccc(C3=NOC(c4cc(Cl)cc(Cl)c4)(C(F)(F)F)C3)cc2C)C1=O` (some centres unmarked) [Compound I-1-51], the mortality at 300 ppm in assay [1], in [6], in [9], in [7] and in assay [8] was over 75% throughout. The mortality at 2500 ppm in assay [2], in [3], in assay [4] and in assay [5] was over 75% each time. Moreover, in [10], the mortality at 10 ppm was found to be 100%. The mortality at 3 ppm in assay [11] was 90%.

With `CON1C(=O)C[C@@H](NC(=O)c2ccc(C3=NOC(c4cc(Cl)cc(Cl)c4)(C(F)(F)F)C3)cc2C)C1=O` (stereo partly drawn) [Compound I-1-55, 4-[5-(3,5-Dichlorophenyl)-5-(trifluoromethyl)-4H-isoxazol-3-yl]-N-[(3R)-1-methoxy-2,5-dioxo-pyrrolidin-3-yl]-2-methyl-benzamide], the mortality at 300 ppm in assay [1], in assay [6], in [9], in assay [7] and in assay [8] was over 75% each time. Besides, the mortality at 2500 ppm in assay [2], in assay [3], in assay [4] and in assay [5] was over 75% each time.

As to `O=C(N[C@@H]1CC(=O)N(O)C1=O)c1ccc(C2=NOC(c3cc(Cl)c(F)c(Cl)c3)(C(F)(F)F)C2)cc1Cl` (stereo partly drawn) [Compound I-1-33, 2-Chloro-4-[5-(3,5-dichloro-4-fluoro-phenyl)-5-(trifluoromethyl)-4H-isoxazol-3-yl]-N-[(3R)-1-hydroxy-2,5-dioxo-pyrrolidin-3-yl]benzamide], the mortality at 300 ppm in [1] and in [6] was over 75% throughout. Besides, the mortality at 2500 ppm in assay [2], in assay [4] and in assay [5] was over 75% each time.

Take `Cc1cc(C2=NOC(c3cc(Cl)c(F)c(Cl)c3)(C(F)(F)F)C2)ccc1C(=O)N[C@@H]1CC(=O)N(CC(F)(F)F)C1=O` (some centres unmarked) [Compound I-1-57]: the mortality at 300 ppm in assay [1], in assay [6], in assay [9] and in assay [7] was over 75% throughout. Besides, the mortality at 2500 ppm in [2], in assay [3], in assay [4] and in assay [5] was over 75% in each case. Further, the mortality at 10 ppm in assay [10] turned out to be 100%.
